The values that follow come from patent publication US5100907A, “Hydantoin esters” (Lonza, Inc., priority 1990, dated 1992).

Series [1] in a line: Physical properties of methylolated MHEDMH esters (I): viscosity. As to conditions: at 25° C. The series is classed as physicochemical.
Series [2] is described as follows: Surface tension tests (cmc, Gibbs' Free Energy of Micellation). The series is classed as physicochemical. Here is the method:
Surface tension tests were conducted as to the relationship between the fatty acid aliphatic chain length, i.e. number of carbon atoms, in the esters (I), and their performance as surfactants. The length of the hydrophobic chain of a molecule is considered the major contributing factor to the critical micelle concentration (cmc) value of a surfactant. This value is obtained from surface tension measurement data. The lower the cmc, the more readily the material will form micelles.
The Gibbs' Free Energy of Micellation (ΔG°cmc) and the ΔG°cmc per --CH2 -- can be determined if the cmc is known.
The ΔG°cmc is a calculated value obtained by Equation 1.
ΔG°cmc =2.303RT(log cmc-log[water]) (Eq. 1)
The ΔG°cmc per --CH2 -- value is obtained from the slope of the straight line curve formed from a plot of ΔG°cmc versus the number of carbon atoms in the lipophilic chain.
The cmc values were based on surface tension tests conducted with a tensiometer (Cenco-DuNoug Precision Model #70535, direct reading model) to determine the upward surface tension at the liquid-air surface of the test ester/water solution. The methods used to calibrate the tensiometer, calculate the "correction factor" (used to correct for the difference between the apparent and true surface tension), and collect data, were conducted as described in the manual for the instrument. Sodium lauryl sulfate (SLS) and distilled water were used as reference samples.
On completing data collection, plots of the surface tension (dynes) versus -log of the concentration (mols/liter) were prepared, using only the "corrected" surface tension value, obtained by applying the noted "correction factor" in each case. The […] was found by multiplying the "apparent" surface tension by a calculated correction factor.
The critical micelle concentration (cmc) for each sample was determined by locating the point in the curve where the surface tension first begins to level off, per a known procedure.

A further series concerns Pseudomonas aeruginosa. Put plainly: Antimicrobial study against Pseudomonas aeruginosa (gram-negative bacteria). Format: cell-based. Conditions: methylolated C8/10 10,800 ppm, methylolated lauric 11,400 ppm, DMDMH 3,000 ppm, others 14,700 ppm. How it is done:
(§1) The antimicrobial properties of typical esters (I) and (Ia) were tested by minimum inhibitory concentration (MIC) tests, along with certain known substances, against […] strains of organisms: a mold, Aspergillus niger; a gram-positive bacteria, Staphylococcus aureus; and two gram-negative bacteria, Escherichia coli and Pseudomonas aeruginosa. […] These tests were used to determine any effect on biocidal activity of the varying chain length of the ester.
(§2) The known substances, on which identical tests were also performed, included the biocide, dimethyloldimethylhydantoin or DMDMH (iv), and a series of three surfactants, i.e., the three common emulsifiers, sodium lauryl sulfate (SLS); ethylene glycol distearate (EGDS), in the form of the commercial product PEGOSPERSE 50 DS (Lonza Inc.); and polyoxyethylene 20 sorbitan monoleate (POE 20 SMO), in the form of the commercial product GLYCOSPERSE 0 20 (Lonza Inc.).
(§3) The tests entailed contaminating a preexisting micro-colony with a known quantity (ppm, concentration) of test material. Each colony was then examined periodically over a one week period. […] A test was deemed non-efficacious when there was no decrease in colony size. In an effort to avoid any possible solvent effect, the micro-study was conducted in a totally aqueous solvent system without use of any other solvent.

A short description of series [3]: Dispersion stability tests. As to conditions: for stability of dispersions in water: 0.5%, and even 5% active levels. Format: physicochemical. Here is the method: The dispersion stability tests were performed on the esters (I) to determine the extent each was able to disperse itself in an aqueous medium.
The dispersions were prepared by homogenizing a mixture of the test ester and water, after which repeated examination of the sample was effected for a period of 55 days. This test method is fully indicative of the dispersibility of these esters (I).
The dispersion tests were performed with the esters at 0.5% and 5.0% active levels in water, prepared by combining the test ester with distilled water, and homogenizing the mixture for one to three minutes, via a Kika-Werk Ultra-Turrax S D-45 homogenizer. The dispersions were poured into an eight ounce flint jar, capped, and periodically examined over a 55 day period.

Another series relates to Staphylococcus species b. Description: Preservative challenge test against Staphylococcus species b. Format: cell-based. Conditions: end of 14 day period. How it is done:
Microbiological challenge tests were also conducted with the lauric and oleic esters (I), representing molecules having C12 and C18 aliphatic fatty acid chain length moieties, respectively.
These preservative challenge tests were used to determine the biocidal performance of these two esters (I) in aqueous solution and dispersion formulations inoculated with a given one of two test organisms, previously isolated from a contaminated calcium carbonate (CaCO3) dispersion, i.e. gram-positive bacteria, designated Staphylococcus species a and Staphylococcus species b, as compared to three known biocides or preservatives, designated as DANTOGARD (trademark), Tektamer 38 (1,2-dibromo-2,4-dicyanobutane) and Nuodex PMA-18.
The solution formulation was represented by the inclusion of the test sample as preservative system in deionized water, and the dispersion formulation was represented by the inclusion of the test sample as preservative system in a CaCO3 aqueous dispersion (identified as Hydrocarb 60), the latter typifying a dispersed pigment medium, e.g. as used in a paint or other industrial dispersion or slurry. The antimicrobial activity of the test samples was evaluated at individually selective concentrations.
All these liquid samples were stored at room temperature until the start of the tests. The test organisms were maintained or nutrient agar at 4° C. and subcultured in nutrient broth (Difco), and a 24 hour culture incubated at 35° C. was used for the testing over a challenge test time period of 14 days.
The test formulations were prepared per a standardized procedure, by placing 20 ml aliquots of the stored sample into sterile test tubes, and then adding 0.1 ml of a standardized 10^6 suspension of a 24 hour culture in nutrient broth. Plate counts were taken immediately to determine the initial level of the microbial population, and the containers were incubated at 20°-25° C. Plate counts were retaken at 1, 3, 7 and 14 days, with the final reductions being calculated from the 14 days results.

Another series has as its system Escherichia coli. Put plainly: Antimicrobial study against Escherichia coli (gram-negative bacteria). The series is classed as cell-based. Conditions: methylolated C8/10 10,800 ppm, methylolated lauric 11,400 ppm, DMDMH 3,000 ppm, others 14,700 ppm. How it is done: as §1, §2, §3
Series [4] can be described thus: Total available formaldehyde (TF) and free formaldehyde (FF) levels of esters (I). The series is classed as physicochemical. As to conditions: for FF (free formaldehyde) / TF (total available formaldehyde): neat ester, Table 3. The text has this: Thus, whether the formaldehyde content is chemically bonded to the hydantoin moiety or is free formaldehyde (FF) in solution, e.g., in water as formaldehyde or methylene glycol [CH2 (OH)2 ], it remains available for biocidal action. Due to this direct relation, the weight percent TF in a given preparation of the ester (I), e.g. a cosmetic formulation, can be predicted accurately, regardless of the level of dilution.

Where [5] appears, read: among esters (I) examined, Table 6.
Where [6] appears, read: 1% active concentration in water.

In series [1], `CCCCCCCC/C=C\CCCCCCCC(=O)OCCN1C(=O)N(CO)C(=O)C1(C)C` [Methylolated Oleic Ester, 2-(3-hydroxymethyl-5,5-dimethyl-1,3-diazacyclopentane-2,4-dion-1-yl)-ethylester of oleic acid] gave a Viscosity of 501 cts. Also, the surface active properties result in series [2] was “particularly favorable surface active properties”. Further, the “cmc, relative rank” value in series [2] (setting [5]) is “the lowest cmc values”. Besides, in series [2] (setting [5]), the “ΔG°cmc, relative rank” value is given as “the lowest ΔG°cmc values”. Also, in series [2] (calculated from cmc by Eq. 1, T=298° K.), the “ΔG°cmc (Gibbs' Free Energy of Micellation)” value is -29.13 kJ/mol. Besides, in series [2] (ester/water solution), the “cmc (critical micelle concentration)” value was 4.0 × 10^-4 mol dm^-3. Also, the “Colony Count” value with Pseudomonas aeruginosa (Day 0) is on record as “TNC”; with Pseudomonas aeruginosa (Day 1), < 0.01 × 1,000; with Pseudomonas aeruginosa (Day 2), < 0.01 × 1,000; in the series with Pseudomonas aeruginosa (Day 3), < 0.01 × 1,000; in the series with Pseudomonas aeruginosa (Day 7) it was < 0.01 × 1,000; in the series with Escherichia coli (Day 0), 4,000 × 1,000. Besides, the “Colony Count” value with Escherichia coli (Day 1), in the series on Escherichia coli (Day 2), in the series with Escherichia coli (Day 3) and in the series on Escherichia coli (Day 7) was < 0.01 × 1,000 in each case. Further, the “dispersion quality, decreasing order of rank” value in series [3] is “isostearate>oleate>cocoate>laurate>C8/10ester>>stearate>acetate”. Further, the “stability of dispersions in water” value in series [3] is reported as “stable for weeks”. Besides, the effectiveness as preservative result is given as “effective as a preservative in calcium carbonate aqueous dispersions” with Staphylococcus species b (calcium carbonate aqueous dispersions) and “effective as preservatives in water” in the series with Staphylococcus species b (water). Besides, in series [4] (setting [6]), the “Calculated TF” value is recorded as 0.065 Wt. %. Further, the “Determined FF” value in series [4] (setting [6]) worked out at 0.0112 Wt. %. The “Ratio FF/TF” value in series [4] (setting [6]) is 0.172. The TF in series [4] (at a concentration of 1.0%) is 0.4 wt. %. Moreover, the “FF (free formaldehyde)” value in series [4] is on record as 0.2 Wt. %. Besides, the “TF (total available formaldehyde)” value in series [4] turned out to be 6.5 Wt. %.

In the case of `CCCCCCCCCCCC(=O)OCCN1C(=O)N(CO)C(=O)C1(C)C` [Methylolated Lauric Ester, 2-(3-hydroxymethyl-5,5-dimethyl-1,3-diazacyclopentane-2,4-dion-1-yl)-ethylester of lauric acid], in series [2], the surface active properties entry is recorded as “particularly favorable surface active properties”. Besides, the “Colony Count” value was “TNC” with Pseudomonas aeruginosa (Day 0); < 0.01 × 1,000 in the series with Pseudomonas aeruginosa (Day 1); < 0.01 × 1,000 in the series with Pseudomonas aeruginosa (Day 2); < 0.01 × 1,000 with Pseudomonas aeruginosa (Day 3); < 0.01 × 1,000 with Pseudomonas aeruginosa (Day 7); “TNC” in the series with Escherichia coli (Day 0). Also, the “Colony Count” value in the series on Escherichia coli (Day 1) is given as “TNC”; in the series with Escherichia coli (Day 2), < 0.01 × 1,000; with Escherichia coli (Day 3), < 0.01 × 1,000; in the series with Escherichia coli (Day 7) it was < 0.01 × 1,000. Moreover, the “dispersion quality, decreasing order of rank” value in series [3] is recorded as “isostearate>oleate>cocoate>laurate>C8/10ester>>stearate>acetate”. In series [3], the “stability of dispersions in water” value is listed as “stable for weeks”. Further, the effectiveness as preservative result with Staphylococcus species b (water) was “effective as preservatives in water”. For the same compound, the “FF (free formaldehyde)” value in series [4] was found to be 0.2 Wt. %. Also, the “TF (total available formaldehyde)” value in series [4] is on record as 8.0 Wt. %.
